Entries after “also recorded” stand apart in the source; their conditions may differ.

The subject of the test is patients with schizophrenia. Nature of the test: international, multicenter, double-blind, placebo- and risperidone-controlled, fixed-dose clinical study. The test is classed as in vivo, human. To be noted: for improvement on the PANSS factor score for negative symptoms, subpopulation with predominantly negative symptoms compared to ITT population: 6 week period, risperidone 4 mg/day, FIG. 1-4. The source says: In the clinical study beside the ITT (intent to treat) population which included the total number of the patients, a subgroup was identified including patients with predominantly negative symptoms. This subgroup was identical with the patient subpopulation showing severe negative symptoms defined by Lenert et al. (Schizophrenia Research 71 (2004) 155-165). Patients showing severe negative symptoms were separated into two groups: State 4 and State 6 (definitions are described in Example). State 4 and State 6 together represent the patient subpopulation with predominantly negative symptoms.
The term “change from baseline” refers to the change of the value of the PANSS factor score for negative symptoms compared to the value registered before treatment started (at the baseline visit). The values were calculated using least squares method. The least squares mean (LSM) values resulted from the analysis of covariance (ANCOVA) model with treatment group and study center as factors and the baseline PANSS factor score of negative symptoms as the covariate.
PANSS factor score for negative symptoms: Sum of scores for items 1, 2, 3, 4, and 6 in negative subscale: blunted affect, emotional withdrawal, poor rapport, passive social withdrawal, lack of spontaneity; and items 7 and 16 in general psychopathology subscale: motor retardation, and active social avoidance. Higher scores indicate worsening.
A representative clinical study was conducted as an international, multicenter, double-bind, placebo- and risperidone-controlled, fixed-dose trial. The objective of the study was to evaluate the safety and efficacy of cariprazine fixed doses in patients with schizophrenia. A total of 732 patients were selected using criteria that includes patients who (i) currently meet or have met in the past the Diagnostic and Statistical Manual of Mental Disorders, Fourth Edition, Text Revision (DSM-IV-TR) criteria for schizophrenia (295.30 Paranoid Type, 295.10 Disorganized Type, 295.20 Catatonic Type, or 295.90 Undifferentiated Type) based on the Structured Clinical Interview for DSM-IV (SCID), (ii) have a PANSS total score ≧80 and ≦120, (iii) have a score ≧4 on Clinical Global Impression-Severity scale (iv) have a score ≧4 on at least 2 of the following 4 PANSS positive symptoms: delusions, hallucinatory behavior, conceptual disorganization, and suspiciousness/persecution.
During a 6 week period, 3 doses of cariprazine (1.5 mg/day, 3 mg/day, 4.5 mg/day) was compared to placebo and to an effective dose of risperidone (4.0 mg/day).
Beside the ITT (intent to treat) population which included the total number of the patients, a subgroup was identified including patients with predominantly negative symptoms. […]

Take `Cc1nc2n(c(=O)c1CCN1CCC(c3noc4cc(F)ccc34)CC1)CCCC2` [risperidone, reference compound]: under “cariprazine 1.5, 3, 4.5 mg/day”, the “improvement on the PANSS factor score for negative symptoms, subpopulation with predominantly negative symptoms compared to ITT population” value is “no difference”.
As for `CN(C)C(=O)N[C@H]1CC[C@H](CCN2CCN(c3cccc(Cl)c3Cl)CC2)CC1` [cariprazine, trans-4-{2-[4-(2,3-dichlorophenyl)-piperazin-1-yl]-ethyl}-N,N-dimethylcarbamoyl-cyclohexylamine], under “cariprazine 1.5, 3, 4.5 mg/day”, the “improvement on the PANSS factor score for negative symptoms, subpopulation with predominantly negative symptoms compared to ITT population” value is reported as “numerically higher improvement”. In addition, the “effect on primary negative symptoms of schizophrenia” value (conclusion from the clinical study of the Example) was “can be treated effectively; also recorded: direct effect on negative symptoms”. For the same molecule, the “effect of extrapyramidal symptoms (EPS) on the change of PANSS factor score for negative symptoms” value (week 6, patients with predominantly negative symptoms vs subgroup without EPS, cariprazine 1.5, 3, 4.5 mg/day, FIG. 5) is “does not seem to be influenced by the treatment emergent EPS”.

The record behind these values is patent US20150306094A1, “TRANS-4--N,N-DIMETHYLCARBAMOYL-CYCLOHEXYLAMINE FOR TREATING NEGATIVE SYMPTOMS OF SCHIZOPHRENIA” (RICHTER GEDEON NYRT., priority 2012, published 2015).
